Laboratory results taken from patent US20050282743A1, “Molecular interactions in cells” (Arbor Vita Corporation, priority 2001, published 2005).
Counter-ions that a name gives are not always drawn. Values belong to the compound of their own block, whether it stands above or below them.

Assays:
[1] = target: T1, Par 3 3/3 : Presenilin 2 (117L) (Homo sapiens, UniProt Q8TEW0); assay: G assay with FDA approved drug (Example 7, TABLES 10A, 10B); assay type: binding; conditions: OD in absence of drug 0.6; drug concentration per TABLE 11; read after 30 minutes
T1 construct: made in house; host or cells: E. coli (DH5alpha, BL21 or JM109)
Method: (§1) For certain of the PDZ proteins and PL proteins shown to bind together and for which Kd values had been obtained, additional testing was conducted to determine whether certain pharmaceutical compounds would act to antagonize or agonize the interactions. Assays were conducted as for the G′ assay described supra both in the presence and absence of test compound, except that 50 ul of a 10 uM solution of the biotinylated PL peptide is allowed to react with the surface bearing the PDZ-domain polypeptide instead of a 20 uM solution as specified in step (2) of the assay.
(§2) In both tables, the first column (left to right) entitled “PDZ domain” lists the gene name of GST-PDZ domain fusion (see TABLE 9). Entries having two numbers separated by a slash indicate which PDZ domain was utilized. For example, in TABLE 10A, the entry for ZO-3 is 1/3. This means that PDZ domain 1 of 3 was used.
(§3) The second column labeled “PL” indicates the name of the PDZ ligand (see TABLES 10A and 10B) interacting with the PDZ domain. The third column entitled “Drug” lists the common or trade name of pharmaceutical compound tested and found to modulate the specific PDZ-PL interaction (suppliers and chemical information are listed in TABLE 11). The final column with the heading “Change in OD” indicates the change in absorbance at 450 nm of the assay in the absence (first number) or presence (second number) of chemical compound.
(§4) Many FDA approved drugs have unknown mechanism of function. It is quite possible that some of these drugs function by disrupting or increasing PDZ/PL interactions. This possibility was examined by using the ‘G Assay’ (Example 3 section D). FDA approved drugs were incubated in the presence of the labeled peptide and compared to the same interaction without drug to determine if there was an effect on specific PDZ:PL interactions (drugs added with peptide at step 9 in Example 3D). The primary focus of this experiment was on drugs involved in treatment of depression (amitriptyline, desipramine, trimipramine, benztropine, and nortryptilline) and epilepsy (valproic acid). No modes of action are known for these drugs.
(§5) Therapeutic dose was determined by guidelines given in the Physician's Desk Reference and in the assay, 200 times this amount was used. If a dosage range was given, the upper end of the range was used. Each interaction listed in TABLES 10A & B was tested in the ‘G Assay’ (see Example 3) against each of the drugs listed in TABLE 11. The concentration of GST-fusion protein and peptide used in the assay represent the Kd and were determined by titration. These values can be found in TABLE 7. The drugs were added to the peptide before addition to the well containing the PDZ protein. Otherwise, the assay was carried out as described and read at 450 nm after 30 minutes of developing. […]

[2] = target: T2, Mupp-1 7/13 : Presenilin 2 (117L) (Homo sapiens, UniProt O75970); assay: as above; assay type: binding; conditions: OD in absence of drug 0.5; drug concentration per TABLE 11; read after 30 minutes
T2 construct: Entries having two numbers separated by a slash indicate which PDZ domain was utilized; made in house; host or cells: E. coli (DH5alpha, BL21 or JM109)
Method: as §1, §2, §3, §4, §5

[3] = target: T3, PTPL-1 (4/5) : Presenilin 2 (117L) (Homo sapiens, UniProt Q12923, G1797A); assay: G assay with FDA approved drug (Example 7, TABLE 10B); assay type: binding; conditions: OD in absence of drug 1.4; drug concentration per TABLE 11; read after 30 minutes
T3 construct: made in house; host or cells: E. coli (DH5α, BL21 or JM109)
Method: as §1, §2, §3, §4
(§6) Therapeutic dose was determined by guidelines given in the Physician's Desk Reference and in the assay, 200 times this amount was used. If a dosage range was given, the upper end of the range was used. Each interaction listed in TABLES 10A & B was tested in the ‘G Assay’ (see Example 3) against each of the drugs listed in TABLE 11. The concentration of GST-fusion protein and peptide used in the assay represent the Kd and were determined by titration. These values can be found in TABLE 7. The drugs were added to the peptide before addition to the well containing the PDZ protein. Otherwise, the assay was carried out as described and read at 450 nm after 30 minutes of developing. For the sequences of the PDZs and PLs used in these tests, see TABLES 8 & 9.
(§7) List of interactions and therapeutics for which a modulation of binding was observed. Concentrations at which the GST-PDZ fusion protein and labeled peptide were used can be found in Table 7 or Table 12.

[4] = target: T4, Hemba 1003117 : Presenilin 2 (117L) (Homo sapiens, UniProt Q96JH8); assay: as above; assay type: binding; conditions: OD in absence of drug 1.2; drug concentration per TABLE 11; read after 30 minutes
T4 construct: made in house; host or cells: E. coli (DH5α, BL21 or JM109)
Method: as §1, §2, §3, §4, §6, §7

TIP-1 1/1 : LPAP (30L) = target: T5, TIP-1 1/1 : LPAP (30L) (Homo sapiens, UniProt O14907); assay: G assay with FDA approved drug (Example 7, TABLE 10A); assay type: binding; conditions: OD in absence of drug 1.1; drug concentration per TABLE 11; read after 30 minutes
T5 construct: made in house; host or cells: E. coli (DH5alpha, BL21 or JM109)
Method: as §1, §2, §3, §4, §6, §7

[5] = tested on: hSyntenin : Presenilin (115L); assay: as above; assay type: binding; conditions: OD in absence of drug 1.1; drug concentration per TABLE 11; read after 30 minutes
Method: as §1, §2, §3, §4, §6, §7

[6] = target: T6, FLJ10324 : Presenilin 2 (117L) (Homo sapiens, UniProt Q96JH8); assay: as above; assay type: binding; conditions: OD in absence of drug 0.4; drug concentration per TABLE 11; read after 30 minutes
T6 construct: made in house; host or cells: E. coli (DH5alpha, BL21 or JM109)
Method: as §1, §2, §3, §4, §6, §7

[7] = target: T7, ZO-3 1/3 : Presenilin (115L) (Homo sapiens, UniProt O95049); assay: as above; assay type: binding; conditions: OD in absence of drug 1.2; drug concentration per TABLE 11; read after 30 minutes
T7 construct: the entry for ZO-3 is 1/3; This means that PDZ domain 1 of 3 was used; made in house; host or cells: E. coli (DH5alpha, BL21 or JM109)
Method: as §1, §2, §3, §4, §6, §7

ZO-2 (1/3) : DNAM (22L) = target: T8, ZO-2 (1/3) : DNAM (22L) (Homo sapiens, UniProt Q9UDY2); assay: G assay with FDA approved drug (Example 7, TABLE 10B); assay type: binding
T8 construct: made in house; host or cells: E. coli (DH5α, BL21 or JM109)
T8 sequence (Q9UDY2 27-122): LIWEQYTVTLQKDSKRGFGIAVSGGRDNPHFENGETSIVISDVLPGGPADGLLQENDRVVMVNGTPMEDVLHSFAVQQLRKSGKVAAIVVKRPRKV
Method: as §1, §2, §3, §4, §6, §7

Atr-P (1/6) : DNAM (22L) = target: T9, Atr-P (1/6) : DNAM (22L) (Homo sapiens, UniProt Q86UL8); assay: as above; assay type: binding; conditions: OD in absence of drug 4; drug concentration per TABLE 11; read after 30 minutes
T9 construct: made in house; host or cells: E. coli (DH5α, BL21 or JM109)
Method: as §1, §2, §3, §4, §6, §7

BAI-1 (2/6) : DNAM (22L) = target: T10, BAI-1 (2/6) : DNAM (22L) (Homo sapiens, UniProt Q96QZ7); assay: as above; assay type: binding; conditions: OD in absence of drug 4; drug concentration per TABLE 11; read after 30 minutes
T10 construct: made in house; host or cells: E. coli (DH5α, BL21 or JM109)
Method: as §1, §2, §3, §4, §6, §7

ZO-1 2/3 : NET (258L) = target: T11, ZO-1 2/3 : NET (258L) (Homo sapiens, UniProt Q07157, DEL264-264); assay: as above; assay type: binding; conditions: OD in absence of drug 0.8; drug concentration per TABLE 11; read after 30 minutes
T11 construct: made in house; host or cells: E. coli (DH5α, BL21 or JM109)
Method: as §1, §2, §3, §4, §6, §7

AF6 : Presenilin (115L) = target: T12, AF6 : Presenilin (115L) (Homo sapiens, UniProt P55196); assay: G assay with FDA approved drug (Example 7, TABLE 10A); assay type: binding
T12 construct: made in house; host or cells: E. coli (DH5alpha, BL21 or JM109)
Method: as §1, §2, §3, §4, §6, §7

DVL2 : Presenilin (115L) = target: T13, DVL2 : Presenilin (115L) (Homo sapiens, UniProt O14641); assay: as above; assay type: binding; conditions: OD in absence of drug 0.3; drug concentration per TABLE 11; read after 30 minutes
T13 construct: made in house; host or cells: E. coli (DH5alpha, BL21 or JM109)
Method: as §1, §2, §3, §4, §6, §7

[8] = tested on: Antigen-specific mouse T cells, BR4.2; assay: T cell stimulation assay, MBPAc1-16 and antigen presenting cells, IFNγ ELISA (FIG. 1A); assay type: cell-based; conditions: 10 μM Tat-peptide; compared to Tat-peptide alone or no peptide
Method: Antigen-specific T cell activation was measured by cytokine production. Fusion peptides containing tat and a T cell surface molecule carboxyl terminus inhibited γ-interferon (IFN) production by a T cell line in response to myelin basic protein (MBP) stimulation. […]
Cell Cultures Cells were maintained and tested in RPMI 1640 media supplemented with 10% fetal calf serum (HyClone), 2 mM glutamine, 10 mM Hepes, 100 U/ml penicillin, 100 μg/ml streptomycin, 0.1 mM non-essential amino acids, 1 mM sodium pyruvate, and 50 μM beta mercaptoethanol.
Supernatants were assayed for cytokine production following activation of T cell lines. […]
IFNγ was measured from cell supernatants, described above, at ambient temperature using the Endogen, Inc. ELISA protocol 3. […] The presence of IFNγ was detected with a biotin-labeled anti-mouse IFNγ monoclonal antibody (MM700B, Endogen, Inc.,). […] The absorbance at 450 nm was measured using a microtiter plate reader (Thermo Max, Molecular Devices) and the concentration of unknown IFNγ from cell supernatants was calculated from a standard curve generated by Softmax Pro software (Molecular Devices).

T7 sequence (O95049 with tags, fused parts or gaps): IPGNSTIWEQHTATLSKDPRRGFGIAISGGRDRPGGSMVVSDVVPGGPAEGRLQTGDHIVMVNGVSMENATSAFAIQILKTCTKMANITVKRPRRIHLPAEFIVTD
T2 sequence (O75970 with tags, fused parts or gaps): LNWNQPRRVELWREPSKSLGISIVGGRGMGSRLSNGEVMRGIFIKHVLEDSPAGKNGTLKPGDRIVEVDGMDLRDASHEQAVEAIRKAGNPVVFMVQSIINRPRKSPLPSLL
T12 sequence (P55196 1001-1093): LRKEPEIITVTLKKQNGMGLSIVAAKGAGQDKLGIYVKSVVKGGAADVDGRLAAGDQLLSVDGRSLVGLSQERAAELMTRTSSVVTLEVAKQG
T1 sequence (Q8TEW0 579-681): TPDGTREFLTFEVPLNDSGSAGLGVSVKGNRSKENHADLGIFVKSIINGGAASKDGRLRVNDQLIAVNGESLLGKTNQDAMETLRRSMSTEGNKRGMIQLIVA
T9 sequence (Q86UL8 408-511): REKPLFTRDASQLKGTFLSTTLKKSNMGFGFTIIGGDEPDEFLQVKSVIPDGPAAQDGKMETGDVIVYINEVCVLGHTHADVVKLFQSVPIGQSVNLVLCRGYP
T11 sequence (Q07157 with tags, fused parts or gaps DEL264-264): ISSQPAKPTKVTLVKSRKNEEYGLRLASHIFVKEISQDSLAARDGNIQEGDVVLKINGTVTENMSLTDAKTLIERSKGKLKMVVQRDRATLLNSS
T13 sequence (O14641 with tags, fused parts or gaps): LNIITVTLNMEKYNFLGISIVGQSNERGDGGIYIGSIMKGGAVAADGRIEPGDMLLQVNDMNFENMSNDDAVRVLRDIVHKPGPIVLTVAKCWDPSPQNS
T6 sequence (Q96JH8 976-1061 limits assumed): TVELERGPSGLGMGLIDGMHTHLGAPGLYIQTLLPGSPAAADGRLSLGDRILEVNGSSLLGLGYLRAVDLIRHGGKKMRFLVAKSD
T3 sequence (Q12923 1782-1879 G1797A): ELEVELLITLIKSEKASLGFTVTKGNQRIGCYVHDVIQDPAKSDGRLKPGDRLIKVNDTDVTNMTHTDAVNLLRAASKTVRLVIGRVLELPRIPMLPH
T5 sequence (O14907 14-116): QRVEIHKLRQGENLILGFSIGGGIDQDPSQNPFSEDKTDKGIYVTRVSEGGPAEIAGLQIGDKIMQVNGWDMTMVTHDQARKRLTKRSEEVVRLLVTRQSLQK
T10 sequence (Q96QZ7 463-566): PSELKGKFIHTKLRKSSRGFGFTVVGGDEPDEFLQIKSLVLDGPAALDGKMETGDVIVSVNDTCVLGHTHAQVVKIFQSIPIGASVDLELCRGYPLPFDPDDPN
T4 sequence (Q96JH8 969-1068): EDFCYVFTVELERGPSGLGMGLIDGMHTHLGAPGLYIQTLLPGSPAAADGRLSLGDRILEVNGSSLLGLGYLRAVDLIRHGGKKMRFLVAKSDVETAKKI

Compound: CN1[C@@H]2CC[C@H]1C[C@@H](OC(c1ccccc1)c1ccccc1)C2 [Benztropine, BENZTROPINE MESYLATE]
Change in OD: absorbance at 450 nm in presence of drug (TIP-1 1/1 : LPAP (30L)): 1.1 to 1.6

Compound: CN(C)CCC=C1c2ccccc2CCc2ccccc21 [Amitriptyline, AMITRIPTYLINE HYDROCHLORIDE]
Change in OD: absorbance at 450 nm in presence of drug [5]: 1.1 to 2.7
agonist effect, binding relative to absence of drug (AF6 : Presenilin (115L); AF6 and presenilin-1): 4.3 fold
Change in OD: absorbance at 450 nm in presence of drug (AF6 : Presenilin (115L); OD in absence of drug 0.4, drug concentration per TABLE 11, read after 30 minutes): 0.4 to 1.7
Change in OD: absorbance at 450 nm in presence of drug (DVL2 : Presenilin (115L)): 0.3 to 0.9
Change in OD: absorbance at 450 nm in presence of drug [7]: 1.2 to 3.6

Compound: GYGRKKRRQRRRGPPSSSSGL [Tat-CD3 fusion peptide]
T cell activation mediated by peptide:MHC (IFNγ production) [8]: inhibits T cell activation

The next lines start with results.

Change in OD: absorbance at 450 nm in presence of drug [1]: 0.6 to 0.2
Change in OD: absorbance at 450 nm in presence of drug [2]: 0.5 to 0.2
CHANGE IN OD: absorbance at 450 nm in presence of drug [3]: 1.4 to 1.1
CHANGE IN OD: absorbance at 450 nm in presence of drug [4]: 1.2 to 0.8
Compound: CCCC(CCC)C(=O)O [Valproic Acid, VALPROIC ACID]

Change in OD: absorbance at 450 nm in presence of drug [1]: 0.6 to 2.1
Change in OD: absorbance at 450 nm in presence of drug [2]: 0.5 to 1.0
Change in OD: absorbance at 450 nm in presence of drug [6]: 0.4 to 0.8
Change in OD: absorbance at 450 nm in presence of drug [7]: 1.2 to 3.3
CHANGE IN OD: absorbance at 450 nm in presence of drug (ZO-2 (1/3) : DNAM (22L); OD in absence of drug 2.1, drug concentration per TABLE 11, read after 30 minutes): 2.1 to 0.5
antagonistic effect, binding relative to absence of drug (ZO-2 (1/3) : DNAM (22L); ZO-2 domain 1 and DNAM-1): 4.2 fold
CHANGE IN OD: absorbance at 450 nm in presence of drug (Atr-P (1/6) : DNAM (22L)): 4 to 1.5
CHANGE IN OD: absorbance at 450 nm in presence of drug (BAI-1 (2/6) : DNAM (22L)): 4 to 1.8
Compound: CNCCCN1c2ccccc2CCc2ccccc21 [Desipramine, DESIPRAMINE HYDROCHLORIDE]
Change in OD: absorbance at 450 nm in presence of drug [5]: 1.1 to 2.3

CHANGE IN OD: absorbance at 450 nm in presence of drug (ZO-1 2/3 : NET (258L)): 0.8 to 0.4
Compound: CN(C)CCCN1c2ccccc2CCc2ccccc21 [Imipramine, Imipramine HCI]
